A word on the IC50: it is the concentration needed to halve the response being measured. In general, Papp A→B refers to how fast a substance crosses the layer from the apical side. Read a low Papp A→B as poor permeation. Broadly, the Papp B→A is the apparent permeability from the basolateral to the apical side of a cell layer. As a reminder, the CC50 is the concentration giving 50% cytotoxicity.

This is an account of results in patent US20190352276A1, “INHIBITORS OF BRUTON'S TYROSINE KINASE” (Joint Stock Company "Biocad", priority 2016, published 2019).

Data set [1] deals with Z-138 (mantle cell lymphoma). Description: Antiproliferative activity, Z-138 cells (Alamar Blue). Conditions: Homo sapiens, Table 10, 72 h, average of several tests. Format: cell-based. The essentials: (§1)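 IC50 values come from a four-parameter logistic fit of Alamar Blue fluorescence (540 nm excitation, 590 nm emission) read 14-16 h after reagent addition. Before that, the lymphoma lines, about 3*10^4 cells per well in 10% FBS RPMI-1640, were incubated with compound for 72 h at 37 °C, keeping final DMSO below 1%.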
Background: Resazurin is reduced to fluorescent resorufin, in cell work by metabolically active cells.

Data set [2] is described as follows: Permeability through the monolayer of Caco-2 cells. Format: in vitro ADME. Particulars: human; for Papp A→B at 2 h, 10 μM / Papp B→A at 2 h, 10 μM: 2 h at 37° C.; for efflux ratio at 2 h, 10 μM: read-out: efflux (Papp B-A/Papp A-B). In outline:
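Bidirectional transport measured over 7200 s with 10 μM compound, using an apical buffer at pH 6.5 and a basolateral Hanks/HEPES/glucose buffer at pH 7.4 containing 1% BSA. Monolayers were 21-day Caco-2 cultures verified with Lucifer Yellow. Chamber concentrations quantified chromatographically to derive Papp in both directions and their B-A/A-B efflux ratio.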

Data set [3] in a line: General cytotoxicity on HepG2 cells (CC50; therapeutic index CC50 HepG2/IC50 Mino). Format: cell-based. Conditions: human, HepG2 cells (hepatocellular carcinoma); Table 10; 72 hours, Alamar Blue; average of several tests. The essentials:
(§2)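 Alamar Blue viability after 72 h exposure to compounds (final 200 μM–4 μM) gave CC50; HepG2 plated 2*10^4/well in DMEM 24 h beforehand. Therapeutic index expressed as ratio of HepG2 CC50 to Mino antiproliferative IC50.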

Data set [4] concerns HepG2 cells (hepatocellular carcinoma). The description is as above. Format: cell-based. Particulars: Table 10; therapeutic index. In outline:
as §2

Data set [5] deals with T1, recombinant Btk kinase enzyme (Homo sapiens, UniProt Q06187).
T1 construct: purchased SignalChem B10-10H
T1 sequence (Q06187 whole entry): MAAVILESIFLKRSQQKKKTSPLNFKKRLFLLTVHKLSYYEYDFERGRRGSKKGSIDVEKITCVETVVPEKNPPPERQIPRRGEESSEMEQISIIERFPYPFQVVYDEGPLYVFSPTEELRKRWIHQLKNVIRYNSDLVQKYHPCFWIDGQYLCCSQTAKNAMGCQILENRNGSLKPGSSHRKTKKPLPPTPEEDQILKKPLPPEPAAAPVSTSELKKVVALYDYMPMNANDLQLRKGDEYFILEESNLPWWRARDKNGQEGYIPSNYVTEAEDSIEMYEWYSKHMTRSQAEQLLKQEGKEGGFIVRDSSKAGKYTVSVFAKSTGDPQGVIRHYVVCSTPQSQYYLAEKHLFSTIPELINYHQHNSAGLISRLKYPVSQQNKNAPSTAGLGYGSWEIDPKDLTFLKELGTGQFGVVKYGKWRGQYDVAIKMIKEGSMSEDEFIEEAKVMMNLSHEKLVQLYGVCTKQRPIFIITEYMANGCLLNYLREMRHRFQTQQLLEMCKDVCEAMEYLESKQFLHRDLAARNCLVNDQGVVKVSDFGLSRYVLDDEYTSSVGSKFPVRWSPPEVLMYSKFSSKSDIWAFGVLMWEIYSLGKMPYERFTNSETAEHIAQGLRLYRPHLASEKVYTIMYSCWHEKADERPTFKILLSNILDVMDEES
Briefly: In vitro inhibition of Btk kinase activity (ADP-Glo). Format: biochemical. Particulars: Table 8; ADP-Glo; read-out: IC50 kinase BTK. Here is the method: To assess Btk kinase activity described herein, SignalChem kinase system was used. Btk kinase activity was determined in the reaction between recombinant Btk kinase enzyme (SignalChem #B10-10H) and Poly (4:1 Glu, Tyr) peptide substrate in the presence of the inhibitor.
Staurosporine (Abcam Biochemicals, ab146588) was used as a reference inhibitor and 0.1% DMSO in the reaction buffer—as a negative control. The solution of 0.5 mg/mL peptide substrate and 50 &M ATP in the same buffer were added; the solution was incubated for 180 minutes at 37° C. To detect the amount of ATP taken up during the kinase reaction, the equivalent amount of ADP (from the ADP Glo Detection Kit (Promega, #V9101)) was used according to the protocol. The reaction mixture was equilibrated to room temperature. 25 µL of ADP-Glo Reagent were added into each well; the plate was incubated for 40 minutes. 50 μL of Kinase Detection Reagent were added; the plate was incubated for 30 minutes. The luminescence was measured with multimode plate reader (Tecan Infinite M200Pro, Switzerland). IC50 values were calculated using Magellan 7.2 software (Tecan, Switzerland) approximating experimental points by four-parameter logistic model with the optimization by Levenberg-Marquardt.
In general terms: ADP-Glo first removes unused ATP, then detects ADP through luciferase.

For data set [6], the system named is Mino (mantle cell lymphoma). Briefly: Antiproliferative activity, Mino cells (Alamar Blue). Conditions: Homo sapiens, Table 10, 72 h, average of several tests. Format: cell-based. The essentials: as §1
For data set [7], the system named is DOHH2 (follicular lymphoma). Description: Antiproliferative activity, DOHH2 cells (Alamar Blue). Format: cell-based. Conditions: Homo sapiens, DOHH-2, Table 10, 72 h, average of several tests. The essentials:
as §1

Data set [8] is described as follows: Chemical stability in artificial gastric fluid (SGF without enzymes). Conditions: 10 μM in SGF without enzymes, pH=1.4, 37° C.

In the case of `C=CC(=O)N1CCC[C@@H](n2nc(-c3ccc(C(=O)Nc4ccc(F)cn4)cc3)c3c(N)ncc(Cl)c32)C1` [BCD-BTK-237, 4-{4-amino-7-chloro-1-[(3R)-1-(prop-2-enoyl)piperidin-3-yl]-1H-pyrazolo[4,3-c]pyridin-3-yl}-N-(5-fluoropyridin-2-yl)benzamide], the IC50 is 6.99 µM in data set [1], 0.0126 µM in data set [5], 6.25 µM in data set [6] and 3.25 µM in data set [7]. This compound also showed an apparent permeability from apical to basolateral (Papp A→B) at 2 h, 10 μM in data set [2] of 6.9 ×10⁻⁶ cm/s. For the same compound, in data set [2], the basolateral-to-apical permeability (Papp B→A) at 2 h, 10 μM is 3.5 ×10⁻⁶ cm/s. For the same compound, the efflux ratio at 2 h, 10 μM in data set [2] is 0.5. This compound also displayed a CC50 at 72 h in data set [3] of 28.4 µM. In addition, the “CC50 (HepG2)/IC50 (Mino)” value in data set [4] amounted to 4.54.
With `C=CC(=O)N1CCC[C@@H](n2nc(-c3ccc(C(=O)Nc4ncccc4F)cc3)c3cncc(C#N)c32)C1` [BCD-BTK-235, 4-{7-cyano-1-[(3R)-1-(prop-2-enoyl)piperidin-3-yl]-1H-pyrazolo[4,3-c]pyridin-3-yl}-N-(3-fluoropyridin-2-yl)benzamide], the “Amount of substance in the sample in % (chemical stability)” value (shortened to “Amount of substance in the sample in %”) in data set [8] was 100%. Further, the half-inhibitory concentration (IC50) in data set [1] is greater than 100 µM; in data set [5], 0.0139 µM; in data set [6], 18.6 µM; in data set [7], greater than 100 µM. The same compound yielded a half-maximal cytotoxic concentration (CC50) at 72 h in data set [3] greater than 100 µM. In data set [4], the “CC50 (HepG2)/IC50 (Mino)” value is greater than 5.37.
`C=CC(=O)N1CCC[C@@H](n2nc(-c3ccc(C(=O)Nc4ncccc4F)cc3)c3c(N)ncc(Cl)c32)C1` [BCD-BTK-233, (R)-4-(1-(1-acryloylpiperidin-3-yl)-4-amino-7-chloro-1H-pyrazolo[4,3-c]pyridin-3-yl)-N-(3-fluoropyridin-2-yl)benzamide]: the “Amount of substance in the sample in %” value in data set [8] is recorded as 100%. For the same compound, the IC50 in data set [1] worked out at 4.11 µM; in data set [5] it was 0.0115 µM; in data set [6], 5.44 µM; in data set [7] it was 1.11 µM. The compound also gave a half-maximal cytotoxic concentration (CC50) at 72 h in data set [3] of 18.4 µM. For the same compound, the “CC50 (HepG2)/IC50 (Mino)” value in data set [4] was determined as 3.39.
Turning to `C=CC(=O)N1CCC[C@@H](n2nc(-c3ccc(C(=O)Nc4ccccn4)cc3)c3c(N)ncc(Cl)c32)C1` [BCD-BTK-238, 4-{4-amino-7-chloro-1-[(3R)-1-(prop-2-enoyl)piperidin-3-yl]-1H-pyrazolo[4,3-c]pyridin-3-yl}-N-(pyridin-2-yl)benzamide], in data set [8], the “Amount of substance in the sample in %” value was determined as 100%. For the same compound, the half-inhibitory concentration (IC50) stood at 9.44 µM in data set [1], 0.0189 µM in data set [5], 10.6 µM in data set [6] and 4.05 µM in data set [7]. This compound showed an apical-to-basolateral permeability (Papp A→B) at 2 h, 10 μM in data set [2] of 6.75 ×10⁻⁶ cm/s. In data set [2], the Papp B→A at 2 h, 10 μM amounted to 4.78 ×10⁻⁶ cm/s. Further, the efflux ratio at 2 h, 10 μM in data set [2] came out at 0.71. For the same compound, the CC50 at 72 h in data set [3] is 24.8 µM. Moreover, the “CC50 (HepG2)/IC50 (Mino)” value in data set [4] stood at 2.34.
Regarding `C=CC(=O)N1CC[C@@H](n2nc(-c3ccc(Oc4ccncc4)cc3)c3cncc(Cl)c32)C1` [BCD-BTK-272, (R)-1-(3-(7-chloro-3-(4-(pyridin-4-yloxy)phenyl)-1H-pyrazolo[4,3-c]pyridin-1-yl)pyrrolidin-1-yl)prop-2-en-1-one], in data set [8], the “Amount of substance in the sample in %” value turned out to be 100%. The half-inhibitory concentration (IC50) came to 14.9 µM in data set [1], 0.0548 µM in data set [5], 6.83 µM in data set [6] and 5.23 µM in data set [7]. Also, the Papp A→B at 2 h, 10 μM in data set [2] stood at 6.3 ×10⁻⁶ cm/s. In data set [2], this compound showed a Papp B→A at 2 h, 10 μM of 1.1 ×10⁻⁶ cm/s. In addition, in data set [2], the efflux ratio at 2 h, 10 μM was determined as 0.18. In data set [3], this compound showed a cytotoxic concentration (CC50) at 72 h of 17.6 µM. In data set [4], the “CC50 (HepG2)/IC50 (Mino)” value was found to be 2.57.
